In patent publication US20210253651A1, “METHOD FOR PRODUCING ORGANIC COMPOUND-ENCAPSULATING FERRITIN” (Ajinomoto Co., Inc., priority 2018, published 2021):
Where a name gives a salt, the structure may show the parent alone.

Columns and labels:
FTL ferritin = biological target: T1, FTL ferritin (Homo sapiens, UniProt P02792); assay: one-step incorporation of DOX into FTL ferritin; format: physicochemical; conditions: pH 8, 50° C., 60 minutes, DOX 0.3 mg/L
T1 construct: made in house; host or cells: Escherichia coli BL21 (DE3), plasmid pET20-FTL
T1 sequence (P02792 whole entry): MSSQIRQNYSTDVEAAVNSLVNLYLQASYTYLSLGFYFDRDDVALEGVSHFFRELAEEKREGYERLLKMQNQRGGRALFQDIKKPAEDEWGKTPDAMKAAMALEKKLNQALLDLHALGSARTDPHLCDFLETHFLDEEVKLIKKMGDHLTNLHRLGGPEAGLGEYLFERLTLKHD
Experimental: The incorporation of the reagent into L chain reagent was carried out using the one-step process. Total synthesis was carried out for a DNA encoding a human-derived ferritin L chain (FTL (SEQ ID NO: 2)) monomer. PCR was carried out using the synthesized DNA as a template as well as the following primers: 5′-[…]-3′ (SEQ ID NO: 234) and 5′-[…]-3′ (SEQ ID NO: 235). PCR was carried out using pET20 (Merck KGaA) as a template as well as the following primers: 5′-[…]-3′ (SEQ ID NO: 5) and 5′-[…]-3′ (SEQ ID NO: 6). The resulting PCR products were purified using Wizard DNA Clean-Up System (Promega Corporation), and then subjected to In-Fusion enzyme treatment at 50° C. for 15 minutes using In-Fusion HD Cloning Kit (Takara Bio Inc.) to construct an expression plasmid (pET20-FTL) carrying a gene encoding FTL monomer.
(§1) DOX was mixed with 1 mL of 50 mM Tris-HCl buffer (pH 8) that contains each mutate FTL ferritin at a final concentration of 1 mg/mL, to achieve a final concentration of 0.3 mg/L, and then the resulting solutions were left to stand at 50° C. for 60 minutes. […] The concentration of contained protein was determined using the protein assay CBB solution (Nacalai Tesque, Inc.) as well as bovine albumin as a standard. The DOX concentration was determined based on analysis of the absorbance at 480 nm.

FTH-U2AF ferritin = biological target: T2, FTH-U2AF ferritin (Homo sapiens, UniProt P02794); assay: one-step incorporation of DOX into FTH-U2AF ferritin; format: physicochemical; conditions: pH 9, 50° C., 60 minutes, DOX 0.3 mg/L
T2 construct: pET20-FTH carrying a DNA encoding a human-derived ferritin H chain monomer as a template; made in house; host or cells: Escherichia coli BL21 (DE3), plasmid pET20-FTH-U2AF
T2 sequence (P02794 with tags, fused parts or gaps): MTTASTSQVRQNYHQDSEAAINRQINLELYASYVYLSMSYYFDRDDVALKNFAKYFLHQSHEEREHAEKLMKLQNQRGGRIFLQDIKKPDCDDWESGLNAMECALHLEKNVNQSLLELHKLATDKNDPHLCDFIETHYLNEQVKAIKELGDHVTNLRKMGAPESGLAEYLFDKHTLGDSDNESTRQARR
Experimental: PCR was carried out using pET20-FTH carrying a DNA encoding a human-derived ferritin H chain monomer as a template as well as the following primers: 5′-[…]-3′ (SEQ ID NO: 18) and 5′-[…]-3′ (SEQ ID NO: 13), in order to obtain a DNA encoding the human-derived ferritin H chain (FTH-U2AF) in which an RNA recognition peptide (U2AF: TRQARR (SEQ ID NO: 17) R Tan and AD Frankel, Proc Natl Acad Sci USA 92, 5282-5286. (1995) which in incorporated herein by reference in its entirety)) is inserted and fused at the C-terminus of the ferritin monomer. The resulting PCR products were purified using Wizard DNA Clean-Up System (Promega Corporation), and then treated with restriction enzymes, DpnI and NdeI (Takara Bio Inc.) for self-ligation in order to construct an expression plasmid (pET20-FTH-U2AF) carrying a gene encoding FTH-U2AF monomer. […]
as §1, with “9)” for “8)”, “mutate” for “mutate FTL”

[1] = pKa of the organic compound; format: physicochemical; conditions: average of plural pKa values
From the text: The pKa of the organic compound can be determined by a neutralization titration method (Kagaku Binran Kiso-hen I and II (Handbook of Chemistry, basic I and II) (Ver. 4) edited by The Chemical Society of Japan, Maruzen Publishing, 1993). […] When the organic compound has a single pKa value, the value is employed as the pKa of the organic compound.

[2] = room temperature; cited from earlier work

Structure (SMILES): COc1cccc2c1C(=O)c1c(O)c3c(c(O)c1C2=O)C[C@@](O)(C(=O)CO)C[C@@H]3OC1CC(N)C(O)C(C)O1 (stereo partly shown) [DOX, Doxorubicin hydrochloride]
- incorporation efficiency of the reagent (FTL ferritin): 7.0 % (wt)
- incorporation efficiency of the reagent (FTH-U2AF ferritin): 17.9 % (wt)
- pKa [1]: 8.42
- solubility of DOX in water [2]: ≥ 60 mg/mL
